Laboratory results as given in US20070149508A1, “Six membered heteroaromatic inhibitors targeting resistant kinase mutations” (TargeGen, Inc., priority 2005, published 2007).
Structures can show the parent of a compound that is named as a salt.

How the values were obtained:
[1] = biological target: T1, Abl (T315I) (Homo sapiens, UniProt P00519, T315I); assay: Abl (T315I) Kinase Assay (KinaseGlo luminescent detection of residual ATP); type: biochemical; conditions: Abl (T315I) IC50 (nM), Abl (T315I) (Upstate, 17 ng/well), Abltide 100 uM, ATP 500 nM, 60 minutes at 37° C.
T1 construct: purchased Upstate
Protocol: The assay was performed similarly to the Abl kinase assay. Abl (T315I) (Upstate, 17 ng/well); Abltide substrate (100 uM) and ATP (500 nM) comprised the reaction mixture. Compound was similarly diluted, and the reaction plate was incubated for 60 minutes at 37° C.

[2] = biological target: Abl kinase (Homo sapiens, UniProt P00519); assay: biochemical; conditions: Abl IC50 (nM), Abl kinase (Invitrogen, 20 ng/well), Abltide 100 μM, ATP 500 nM, 37° C. for 60 minutes, top concentration 10 uM
Protocol: Kinase activity was assessed using luminescent detection (KinaseGlo, Promega) of residual ATP concentration in reaction mixtures containing optimized levels of kinase, substrate, ATP, compound and appropriate buffers. Kinase, substrate and ATP concentrations were determined per the supplier's recommendations. Briefly, this involved running concentration curves to select for optimal signal.
The reaction mixture (50 ul/well) consisted of Abl kinase (Invitrogen, 20 ng/well); Abltide peptide substrate (Upstate, 100 μM) and ATP (500 nM). Each compound was evaluated at a top concentration of 10 uM with 1:3 dilution steps, 10 dilution steps total. Compound was diluted into DMSO and transferred to the reaction plate, resulting in a final DMSO concentration of 2%. This amount of DMSO was determined not to interfere with the enzyme. The reaction was conducted at 37° C. for 60 minutes. The degree of inhibition was assessed using IC50 determinations, which were obtained using GraphPad Prism4.

Row | SMILES | IC50 [1] | IC50 [2]
1 | Nc1nc2ccc(/C=C/c3cnc(Nc4ccc(S(=O)(=O)N5CCNCC5)c(N5CCNCC5)c4)nc3)cc2s1 [6-[(E)-2-(2-{[3-piperazin-1-yl-4-(piperazin-1-ylsulfonyl)phenyl]amino}pyrimidin-5-yl)vinyl]-1,3-benzothiazol-2-amine] | 152 nM | 318 nM
2 | Nc1nc2ccc(/C=C/c3cnc(Nc4ccc(S(=O)(=O)N5CCC(N)CC5)cc4)nc3)cc2s1 [6-{(E)-2-[2-({4-[(4-aminopiperidin-1-yl)sulfonyl]phenyl}amino)pyrimidin-5-yl]vinyl}-1,3-benzothiazol-2-amine] | 21 nM | 42 nM
3 | O=C(Nc1cccc(/C=C/c2cnc(Nc3cccnc3)nc2)c1)c1cccc(C(F)(F)F)c1 [N-(3-{2-[2-(Pyridin-3-ylamino)-pyrimidin-5-yl]-vinyl}-phenyl)-3-trifluoromethyl-benzamide] | > 10000 nM | 148 nM
4 | O=S(=O)(CCCN1CCCC1)c1ccc(Nc2ncc(/C=C/c3cccc4[nH]ncc34)cn2)cc1 [5-[(E)-2-(1H-indazol-4-yl)vinyl]-N-{4-[(3-pyrrolidin-1-ylpropyl)sulfonyl]phenyl}pyrimidin-2-amine] | 124 nM | 3.9 nM
5 | O=S(=O)(CCCN1CCNCC1)c1ccc(Nc2ncc(/C=C/c3cccc4[nH]ccc34)cn2)cc1 [{5-[2-(1H-Indol-4-yl)-vinyl]-pyrimidin-2-yl}-[4-(3-piperazin-1-yl-propane-1-sulfonyl)-phenyl]-amine] | 488 nM | 54 nM
6 | C=Cc1cnc(Nc2ccc(S(=O)(=O)C3CCN(C)CC3)cc2)nc1 [N-(4-(1-methylpiperidin-4-ylsulfonyl)phenyl)-5-vinylpyrimidin-2-amine] | 1570 nM | 4250 nM
7 | Nc1nc2cc(C(F)(F)F)cc(/C=C/c3cnc(Nc4ccc(S(=O)(=O)C5CCNCC5)cc4)nc3)c2[nH]1 [7-((E)-2-(2-(4-(piperidin-4-ylsulfonyl)phenylamino)pyrimidin-5-yl)vinyl)-5-(trifluoromethyl)-1H-benzo[d]imidazol-2-amine] | 254 nM | 130 nM
8 | O=S(=O)(c1ccc(Nc2ncc(/C=C/c3ccccc3)cn2)cc1NCCO)N1CCNCC1 [2-{[5-({5-[(E)-2-phenylvinyl]pyrimidin-2-yl}amino)-2-(piperazin-1-ylsulfonyl)phenyl]amino}ethanol trifluoroacetic acid salt] | 2500 nM | 131 nM
9 | O=C(Nc1nc2ccc(/C=C/c3cnc(Nc4ccc(S(=O)(=O)N5CCNCC5)cc4)nc3)cc2s1)c1cccc(C(F)(F)F)c1 [N-[6-(2-{2-[4-(Piperazine-1-sulfonyl)-phenylamino]-pyrimidin-5-yl]-vinyl)-benzothiazol-2-yI]-3-trifluoromethyl-benzamide] | 5600 nM | 5110 nM
10 | O=S(=O)(c1ccc(Nc2ncc(/C=C/c3cccc4[nH]ncc34)cn2)cc1N1CCNCC1)N1CCNCC1 [5-[(E)-2-(1H-indazol-4-yl)vinyl]-N-[3-piperazin-1-yl-4-piperazin-1-ylsulfonyl)phenyl]pyrimidin-2-amine] | 336 nM | 20 nM
11 | Nc1noc2c(/C=C/c3cnc(Nc4ccc(S(=O)(=O)N5CCNCC5)c(NCCO)c4)nc3)cccc12 [2-{[5-({5-{(E)-2-(3-amino-1,2-benzisoxazol-7-yl)vinyl]pyrimidin-2-yl}amino)-2-(piperazin-1-ylsulfonyl)phenyl]amino}ethanol] | 1860 nM | 34 nM
12 | CN1CCN(S(=O)(=O)c2cccc(Nc3ncc(/C=C/c4cccc5[nH]ccc45)cn3)c2)CC1 [5-[(E)-2-(1H-indol-4-yl)vinyl]-N-{3-[(4-methylpiperazin-1-yl)sulfonyl]phenyl}pyrimidin-2-amine] | ~10000 nM | 784 nM
13 | C(=C\c1cccc2[nH]ccc12)/c1cnc(Nc2ccc(C3CCNCC3)cc2)nc1 [{5-[2-(1H-Indol-4-yl)-vinyl]-pyrimidin-2-yl}-(4-piperidin-4-yl-phenyl)-amine] | 1320 nM | 42 nM
14 | OCCN1CCN(c2cccc(Nc3ncc(/C=C/c4cccc5[nH]ccc45)cn3)c2)CC1 [2-(4-(3-(5-((E)-2-(1H-indol-4-yl)vinyl)pyrimidin-2-ylamino)phenyl)piperazin-1-yl)ethanol Hydrochloride] | – | 178 nM

Continued, values first:

Row | IC50 [1] | IC50 [2] | SMILES
15 | 251 nM | 77 nM | O=S(=O)(c1ccc(Nc2ncc(/C=C/c3cccc4[nH]ncc34)cn2)cc1)N(CCO)C1CCNCC1 [N-(2-hydroxyethyl)-4-({5-[(E)-2-(1H-indazol-4-yl)vinyl]pyrimidin-2-yl}amino)-N-piperidin-4-ylbenzenesulfonamide]
16 | 1800 nM | 2420 nM | O=S(=O)(c1ccc(Nc2ncc(/C=C/c3ccc4c(c3)CC/C4=N/O)cn2)cc1)C1CCNCC1 [5-(2-{2-[4-(Piperidine-4-sulfonyl)-phenylaminol]-pyrimidin-5-yl}-vinyl)-indan-1-one oxime]
17 | 317 nM | 922 nM | Nc1nc2ccc(/C=C/c3cnc(Nc4ccc(S(=O)(=O)N5CCC(O)CC5)cc4)nc3)cc2s1 [(E)-1-(4-(5-(2-(2-aminobenzo[d]thiazol-6-yl)vinyl)pyrimidin-2-ylamino)phenylsulfonyl)piperidin-4-ol]
18 | 2270 nM | 127 nM | O=C1Cc2c(/C=C/c3cnc(Nc4ccc(S(=O)(=O)C5CCNCC5)cc4)nc3)cccc2N1 [4-(2-{2-[4-(Piperidine-4-sulfonyl)-phenylamino]-pyrimidin-5-yl}-vinyl)-1,3-dihydro-indol-2-one, hydrogen chloride]
19 | 297 nM | 30 nM | Oc1cccc(/C=C/c2cnc(Nc3ccc(OCCN4CCCC4)cc3)nc2)c1 [3-((E)-2-(2-(4-(2-(pyrrolidin-1-yl)ethoxy)phenylamino)pyrimidin-5-yl)vinyl)phenol trifluoroacetate]
20 | 60 nM | 12 nM | O=S(=O)(NC1CCCNC1)c1ccc(Nc2ncc(/C=C/c3cccc(O)c3)cn2)cc1 (stereo not shown) [4-{5-[2-(3-Hydroxy-phenyl)-vinyl]-pyrimidine-2-ylamino}-N-piperdin-3-yl-benzenesulfonamide Hydrochloride]
21 | 96 nM | 3.8 nM | O=S(=O)(c1ccc(Nc2ncc(/C=C/c3cc(O)ccc3Cl)cn2)cc1)C1CCNCC1 [4-Chloro-3-(2-{2-[4-(piperidine-4-sulfonyl)-phenylamino]-pyrimidin-5-yl}-vinyl)-phenol]
22 | 282 nM | 12 nM | O=S(=O)(NC1CCNCC1)c1ccc(Nc2ncc(/C=C/c3cccc4[nH]ccc34)cn2)cc1 [4-{5-[2-(1H-Indol-4-yl)-vinyl]-pyrimidin-2-ylamino}-N-piperidin-4-yl-benzenesulfonamide]
23 | 2440 nM | 781 nM | NS(=O)(=O)c1cccc(/C=C/c2cnc(Nc3ccc(S(=O)(=O)N4CCCNCC4)cc3)nc2)c1 [3-(2-{2-[4-([1,4]Diazepane-1-sulfonyl)-phenylamino]-pyrimidin-5-yl}-vinyl)-benzenesulfonamide]
24 | 45 nM | 93 nM | CN(C1CCNCC1)S(=O)(=O)c1ccc(Nc2ncc(/C=C/c3ccc4nc(N)sc4c3)cn2)cc1 [4-{5-[2-(2-Amino-benzothiazol-6-yl)-vinyl]pyrimidin-2-ylamino}-N-methyl-N-piperidin-4-yl-benzensulfonamide Hydrochloride]
25 | 298 nM | 977 nM | NS(=O)(=O)c1ccc(/C=C/c2cnc(Nc3ccc(S(=O)(=O)N4CCCNCC4)cc3)nc2)cc1 [4-(2-{2-[4-([1,4]Diazepane-1-sulfonyl)-phenylamino]-pyrimidin-5-yl}-vinyl)-benzenesulfonamide]
